# Test results taken from patent US20170312681A1, “PROCESS AND APPARATUS FOR SEPARATING ENTRAINED AMINES FROM A GAS STREAM” (Carbonoro B.V., priority 2014, published 2017).
# Assay: amine content of the aqueous phase after heat-induced phase separation of an aqueous MCA/DMCA mixture
# Conditions: 3 M MCA:DMCA 1:3 wt./wt. in water
# Experimental: The phases were separated and the aqueous phase was analysed for determining the amine content.
compound,measurement,setting,value
"CNC1CCCCC1 [MCA, N-methylcyclohexylamine]",MCA in aqueous phase,heated 24 h at 40 ° C.,6940 mg/L
same,MCA in aqueous phase,heated 24 h at 50 ° C.,5630 mg/L
same,MCA in aqueous phase,heated 24 h at 60 ° C.,5090 mg/L
same,MCA in aqueous phase,heated 24 h at 70 ° C.,4520 mg/L
